Test results from US9975878B2, “Substituted triazine BMI-1 inhibitors” (PTC Therapeutics, Inc., priority 2013, dated 2018).

tested on: Bmi-1 protein; assay: Sandwich ELISA Assay: Bmi-1 protein level in HT-1080 cells treated with test compounds; assay type: cell-based
Experimental: Cell Seeding and Compound Treatment (Day 1):
HT-1080 cells were seeded at 8000 cells/well (50 μL) in 96-well tissue culture plates. After the cells became adherent (3-4 hours), 2× diluted stocks of test compounds in 50 μL DMEM containing 1% DMSO (final DMSO concentration was 0.5%) were added and the plates were incubated at 37° C. under 5% CO2 for 40-48 hours.
ELISA Plate First Antibody Preparation (Day 2):
The First Antibody (Millipore Mouse, monoclonal to mouse Bmi-1, clone F6, catalog #05-637) diluted to 2 μg/mL in PBS was added (100 μL) to each well of a Nunc MaxiSorp 96-well ELISA plate. The plate was covered with a plate seal and allowed to stand overnight.
Cell Lysate Preparation (Day 3):
Fresh Lysis buffer (1×) was prepared on the day of the assay as follows: 1 mM EDTA, 150 mM NaCl, 0.5% Triton-X 100, 10 mM NaF, 20 mM B-Glycerophosphate, 1 mM DTT (in PBS, pH 7.2-7.4) and HALT protease inhibitor cocktail (1×) (Pierce #78410).
Lysis Buffer (1×, 40 μL) was added to each well and the plate was shaken for 5-10 minutes on an orbital shaker to allow cell lysis, then diluent (1% BSA in PBS in 0.5% NP40) (100 μL) was added to each well.
A standard curve was prepared at the following Bmi-1 concentrations: 8000, 4000, 2000, 1000, 500, 250, 125 and 0 pg/mL. The Bmi-1 Recombinant Protein Standard (Novus Biologicals PCGF4 Recombinant Protein (P01), catalog # H00000648-P01) used to prepare the standard curve was stored at −80° C. On first thaw, the Recombinant Protein Standard was diluted to 10 μg/μL in Blocking Buffer (1% BSA in PBS; BSA: Fisher Scientific Catalog #1600-100). Aliquots were taken and refrozen at −80° C. The aliquots may be kept at 4° C. and reused after first thaw, but only within 1-2 weeks. The Recombinant Protein Standard contains a GST-fusion tag that appears at approximately 70 Kda on Western Blot.
The prepared ELISA plate was washed 3× with Wash Buffer (0.05% Tween-20 in PBS). The final wash was removed from the plate and the plate was blotted dry. Blocking Buffer (300 μL) (1% BSA in PBS) was added to each well. The plate was covered with a plate seal and incubated at room temperature for 1 hour. The blocked plate was washed 3× with Wash Buffer, then the final wash was removed and the plate was blotted dry. The previously prepared samples and standards were added (100 μL/well) and the plate was covered with a plate seal and incubated at 4° C. overnight.
The prepared ELISA plate was removed from incubation and allowed to stand at room temperature for 30 minutes, then washed and blotted dry. The Second Antibody (Cell Signaling Rabbit anti-Bmi-1, Cat# 2830) diluted to 1:600 in Blocking Buffer was added (100 μL) to each well, except as needed for background control wells. The plate was covered with a plate seal and incubated for 1.5 hrs at room temperature.
The ELISA plate was washed and blotted dry as previously described. The Third Antibody (Cell Signaling HRP conjugated anti-rabbit IgG (CellSignaling, Cat#:7074) diluted to 1:300 in Blocking Buffer was added (100 μL) to each well, except as needed for background control wells. The plate was incubated for 1 hr at room temperature.
The plate was washed and blotted dry, then a previously prepared TMB substrate (TMB substrate kit, Pierce catalog #34021) (prepared by mixing kit reagents 1:1) (100 μL) was added per well. The plate was incubated for 20-30 minutes at room temperature in the dark, then Stop Solution (2 M sulfuric acid in water) (50 μL) was added per well. The plates were read at OD450 (experimental) and OD570 (reference).

EC50 | Compound
100 to 3000 nM | Cc1nc2cc(F)c(F)cc2n1-c1nc(N)nc(Nc2ccc(C(F)(F)F)cc2)n1 [Cpd 9, 6-(5,6-difluoro-2-methyl-1H-benzimidazol-1-yl)-N-[4-(trifluoromethyl)phenyl]-1,3,5-triazine-2,4-diamine]
10 to 100 nM | FC(F)(F)c1ccc(Nc2cnnc(-n3c(C4CC4)nc4ccccc43)n2)cc1 [Cpd 101, 3-(2-cyclopropyl-1H-benzimidazol-1-yl)-N-[4-(trifluoromethyl)phenyl]-1,2,4-triazin-5-amine]
100 to 3000 nM | CCCc1nc2ccccc2n1-c1nc(N)nc(Nc2ccc(C(F)(F)F)cc2)n1 [Cpd 127, 6-(2-propyl-1H-benzimidazol-1-yl)-N-[4-(trifluoromethyl)phenyl]-1,3,5-triazine-2,4-diamine]
1 to 10 nM | CCc1nc2c(F)cc(F)cc2n1-c1nc(N)nc(Nc2ccc(Br)cc2)n1 [Cpd 209, N-(4-bromophenyl)-6-(2-ethyl-4,6-difluoro-1H-benzimidazol-1-yl)-1,3,5-triazine-2,4-diamine]
100 to 3000 nM | Cc1nc2ccc(F)cc2n1-c1nncc(Nc2ccc(C(F)(F)F)cc2)n1 [Cpd 130, 3-(6-fluoro-2-methyl-1H-benzimidazol-1-yl)-N-[4-(trifluoromethyl)phenyl]-1,2,4-triazin-5-amine]
1 to 10 nM | COc1ccc(Nc2nc(N)nc(-n3c(C)nc4cc(F)c(F)cc43)n2)cc1 [Cpd 194, 6-(5,6-difluoro-2-methyl-1H-benzimidazol-1-yl)-N-(4-methoxyphenyl)-1,3,5-triazine-2,4-diamine]
100 to 3000 nM | Cc1nc2cc(Cl)ccc2n1-c1nc(N)nc(Nc2ccc(C(F)(F)F)cc2)n1 [Cpd 74, 6-(5-chloro-2-methyl-1H-benzimidazol-1-yl)-N-[4-(trifluoromethyl)phenyl]-1,3,5-triazine-2,4-diamine]
1 to 10 nM | Cc1ccc(Nc2nc(N)nc(-n3c(C4CC4)nc4cc(F)ccc43)n2)cc1 [Cpd 192, 6-(2-cyclopropyl-5-fluoro-1H-benzimidazol-1-yl)-N-(4-methylphenyl)-1,3,5-triazine-2,4-diamine]
100 to 3000 nM | Cc1nc2ccccc2n1-c1nc(N)nc(Nc2ccc(C(F)(F)F)c(F)c2)n1 [Cpd 5, N-[3-fluoro-4-(trifluoromethyl)phenyl]-6-(2-methyl-1H-benzimidazol-1-yl)-1,3,5-triazine-2,4-diamine]
10 to 100 nM | CCc1nc2cc(F)ccc2n1-c1nc(N)nc(Nc2ccc(OC(F)F)cc2)n1 [Cpd 59, N-[4-(difluoromethoxy)phenyl]-6-(2-ethyl-5-fluoro-1H-benzimidazol-1-yl)-1,3,5-triazine-2,4-diamine]
10 to 100 nM | Nc1nc(Nc2ccc(Br)cc2)nc(-n2c(C3CC3)nc3c(F)cccc32)n1 [Cpd 220, N-(4-bromophenyl)-6-(2-cyclopropyl-4-fluoro-1H-benzimidazol-1-yl)-1,3,5-triazine-2,4-diamine]
1 to 10 nM | Cc1ccc(Nc2nc(N)nc(-n3c(C4CC4)nc4ccc(F)cc43)n2)cc1 [Cpd 177, 6-(2-cyclopropyl-6-fluoro-1H-benzimidazol-1-yl)-N-(4-methylphenyl)-1,3,5-triazine-2,4-diamine]
100 to 3000 nM | CCc1nc2c(F)cc(F)cc2n1-c1nc(N)nc(Nc2ccc(Cl)c(F)c2)n1 [Cpd 200, N-(4-chloro-3-fluorophenyl)-6-(2-ethyl-4,6-difluoro-1H-benzimidazol-1-yl)-1,3,5-triazine-2,4-diamine]
100 to 3000 nM | Nc1nc(Nc2ccc(C(F)(F)F)cc2)nc(-n2c(CF)nc3ccccc32)n1 [Cpd 107, 6-[2-(fluoromethyl)-1H-benzimidazol-1-yl]-N-[4-(trifluoromethyl)phenyl]-1,3,5-triazine-2,4-diamine]
10 to 100 nM | Nc1nc(Nc2ccc(OC(F)F)cc2)nc(-c2c(C(F)(F)F)nc3ccccn23)n1 [Cpd 72, N-[4-(difluoromethoxy)phenyl]-6-[2-(trifluoromethyl)imidazo[1,2-a]pyridin-3-yl]-1,3,5-triazine-2,4-diamine]
100 to 3000 nM | Fc1ccc2nc(C3CC3)n(-c3cnnc(Nc4ccc(C(F)(F)F)cc4)n3)c2c1 [Cpd 134, 5-(2-cyclopropyl-6-fluoro-1H-benzimidazol-1-yl)-N-[4-(trifluoromethyl)phenyl]-1,2,4-triazin-3-amine]
10 to 100 nM | Cc1nc2cc(F)c(F)cc2n1-c1nc(N)nc(Nc2ccc(Br)cc2)n1 [Cpd 210, N-(4-bromophenyl)-6-(5,6-difluoro-2-methyl-1H-benzimidazol-1-yl)-1,3,5-triazine-2,4-diamine]
10 to 100 nM | Fc1ccc2nc(C3CC3)n(-c3nncc(Nc4ccc(C(F)(F)F)cc4)n3)c2c1 [Cpd 132, 3-(2-cyclopropyl-6-fluoro-1H-benzimidazol-1-yl)-N-[4-(trifluoromethyl)phenyl]-1,2,4-triazin-5-amine]
10 to 100 nM | CCc1nc2ncc(F)cc2n1-c1nc(N)nc(Nc2ccc(C(F)(F)F)cc2)n1 [Cpd 82, 6-(2-ethyl-6-fluoro-1H-imidazo[4,5-b]pyridin-1-yl)-N-[4-(trifluoromethyl)phenyl]-1,3,5-triazine-2,4-diamine]
10 to 100 nM | CCc1nc2cc(F)ccc2n1-c1nc(N)nc(Nc2ccc(Br)cc2)n1 [Cpd 221, N-(4-bromophenyl)-6-(2-ethyl-5-fluoro-1H-benzimidazol-1-yl)-1,3,5-triazine-2,4-diamine]
1 to 10 nM | CCc1nc2c(F)cccc2n1-c1nc(N)nc(Nc2ccc(OC)cc2)n1 [Cpd 212, 6-(2-ethyl-4-fluoro-1H-benzimidazol-1-yl)-N-(4-methoxyphenyl)-1,3,5-triazine-2,4-diamine]
10 to 100 nM | Nc1nc(Nc2ccc(OC(F)F)nc2)nc(-n2c(C(F)F)nc3ccccc32)n1 [Cpd 105, N-[6-(difluoromethoxy)pyridin-3-yl]-6-[2-(difluoromethyl)-1H-benzimidazol-1-yl]-1,3,5-triazine-2,4-diamine]
10 to 100 nM | CCc1nc2cc(F)ccc2n1-c1nc(N)nc(Nc2ccc(C(F)(F)F)cc2)n1 [Cpd 58, 6-(2-ethyl-5-fluoro-1H-benzimidazol-1-yl)-N-[4-(trifluoromethyl)phenyl]-1,3,5-triazine-2,4-diamine]
100 to 3000 nM | Cc1nc2c(F)cccc2n1-c1nc(N)nc(Nc2ccc(Cl)cc2)n1 [Cpd 181, N-(4-chlorophenyl)-6-(4-fluoro-2-methyl-1H-benzimidazol-1-yl)-1,3,5-triazine-2,4-diamine]
10 to 100 nM | CCc1nc2ccccc2n1-c1nc(N)nc(Nc2ccc(Cl)cc2)n1 [Cpd 162, N-(4-chlorophenyl)-6-(2-ethyl-1H-benzimidazol-1-yl)-1,3,5-triazine-2,4-diamine]
10 to 100 nM | Nc1nc(Nc2ccc(OC(F)F)cc2)nc(-n2c(C3CC3)nc3ncc(F)cc32)n1 [Cpd 77, 6-(2-cyclopropyl-6-fluoro-1H-imidazo[4,5-b]pyridin-1-yl)-N-[4-(difluoromethoxy)phenyl]-1,3,5-triazine-2,4-diamine]
10 to 100 nM | Cc1nc2ccc(F)cc2n1-c1nc(N)nc(Nc2ccc(OC(F)F)c(F)c2)n1 [Cpd 29, N-[4-(difluoromethoxy)-3-fluorophenyl]-6-(6-fluoro-2-methyl-1H-benzimidazol-1-yl)-1,3,5-triazine-2,4-diamine]
10 to 100 nM | CCc1nc2ccccc2n1-c1nncc(Nc2ccc(OC(F)F)cc2)n1 [Cpd 100, N-[4-(difluoromethoxy)phenyl]-3-(2-ethyl-1H-benzimidazol-1-yl)-1,2,4-triazin-5-amine]
10 to 100 nM | Nc1nc(Nc2ccc(OC(F)F)c(F)c2)nc(-n2c(C3CC3)nc3c(F)cccc32)n1 [Cpd 87, 6-(2-cyclopropyl-4-fluoro-1H-benzimidazol-1-yl)-N-[4-(difluoromethoxy)-3-fluorophenyl]-1,3,5-triazine-2,4-diamine]
